From a melting point compilation (Tetko et al.; mined from patent text by program, amines drawn as free bases though some values may be those of a salt)

SMILES	melting point
CCOc1nn(-c2ccc(C(F)(F)F)cn2)cc1CCOc1ccc(CC(=O)O)cc1	142 to 143 °C
O=C(O)Cn1ccn(C2CCc3ccccc3C2)c1=S (configuration not stated)	228 to 230 °C
O=C(O)C1Cc2c(c(Cl)cc3c(-c4ccccc4Cl)noc23)O1 (configuration not stated)	220 to 222 °C
COc1cc(S(C)=O)c(C)cc1OCC(=O)NCC(O)COc1ccccc1C (configuration not stated)	106 to 108 °C
CNC(=O)c1cc(-c2ccc(OC)c(F)c2)nn(CC2CC2)c1=O	140 to 141 °C
CCCC1CCC(C)C(CCC2CC(O)CC(=O)O2)C1COC(=O)C(C)(C)CC (configuration not stated)	128 to 130 °C
O=C(N[C@H](Cc1ccc(C(F)(F)F)cc1)[C@@H](O)c1cccc2ccccc12)c1cccc2ccccc12 (racemic)	217 to 218 °C
Cn1cncc1C(N)(c1ccc(Cl)cc1)c1ccc2c(c1)c(-c1cccc(Cl)c1)nc1nnnn12 (configuration not stated)	159 °C
CCOC(=O)c1cn(-c2nc(OC)c(F)cc2F)c2c(Cl)c(F)c(F)cc2c1=O	140 to 143 °C
COc1cc(C=CC(=O)Nc2cnc3ccccc3c2-c2ccccc2Cl)cc(OC)c1OC(C)=O	237 to 238 °C
COc1cc(Nc2c(C#N)cnc3cc(-c4ccc(CO)cc4)sc23)c(Cl)cc1Cl	239 to 240 °C
COc1cc(OC(C)C)ccc1/C=C/c1cc(/C=C/c2ccc3cc[nH]c3c2)n[nH]1	107 to 113 °C
O=C(O)c1cc(C(F)(F)F)cc(-c2ccc(Cl)c(C(=O)NCC34CC5CC(CC(C5)C3)C4)c2)n1	220 to 225 °C
CCOC(=O)OC1=C(c2c(C)cc(C)cc2C)C(=O)N(N(C)C)C12CCN(N(C)C)CC2	105 °C
OCc1cn(-c2ccc(SC(F)(F)F)c(Cl)c2)cn1	105 to 106 °C
CC[C@@H](O)C1(c2onc(-c3ccc(O)cc3)c2-c2ccccc2)CC1	163 to 164 °C
CC(C)c1nc(CN(C)C(=O)NC(C(=O)NC(Cc2ccccc2)CC(O)C(Cc2ccccc2)NC(=O)OCc2cncs2)C(C)C)cs1 (configuration not stated)	122 to 123 °C
Cc1cc(C)c(-n2nnc3c(-c4ccccc4C(F)(F)F)nc(C)nc32)c(C)c1	139 °C
CCc1nc(N)nc2c1nc(NC)n2C1CC(N=[N+]=[N-])C(CO)O1 (configuration not stated)	38 to 43 °C

SMILES	melting point
O=C(O)COc1ccc(SCc2cc(-c3ccc(C(F)(F)F)cc3)no2)c2c1CCC2	166 to 168 °C
Cn1cnnc1NCCCOc1cccc(CN2CCCCC2)c1	118 to 119 °C
O=C1C(=CO)C(c2ccc(Cl)cc2)c2ccc(Cl)cc21 (configuration not stated)	122 to 124 °C
C=C=Cn1c(=O)sc2cc(F)c(-n3c(=O)cc(C)n(C)c3=O)cc21	> 250 °C
CC(C)(C)OC(=O)n1cc(C(=O)C=C(O)C2(C(=O)O)C=CC=CC2)c2ccccc21 (configuration not stated)	138 to 141 °C
Cc1ccccc1Cn1c(OCc2ccccc2)noc1=O	77 to 78 °C
OC(c1ccccc1)(C1CC1)C(c1ccccc1Cl)n1ccnc1 (configuration not stated)	146 °C
Cc1cc(C)n(Cc2ccc(Cl)cc2Cl)c1C=O	88 to 89 °C
CC(C)(C)OC(=O)NCC(=O)N1CCC[C@H]1C(=O)O	140 to 143 °C
C=CCOc1ccc2oc(C(=O)OCC)cc2c1	34 to 36 °C
COCCOc1ccc(CCCO)c(Oc2ncc(C(F)(F)F)cc2Cl)c1	70 to 71 °C
O=C(CCN1CCOCC1)Nc1cc(-c2nnc(CCc3cccc(F)c3)o2)ccn1	149 to 150 °C
CCCn1c(=O)n(-c2ccc3c(c2)OCO3)c2ncc(F)cc21	153 to 154 °C
CN1c2ccc(C(C)(C)C)cc2[C@H]2Cc3ccccc3[C@H]21 (relative stereo)	74 °C
O=C(O)Cn1c(=O)c(=O)[nH]c2cc([N+](=O)[O-])c(-n3ccc(CN4CCCCC4)c3)cc21	> 250 °C
COc1ccc(-c2cc3c(OC)cc(OC)cc3nc2OCC(=O)OCc2ccccc2)cc1	114 to 115 °C
Nc1ccc(-n2nnn(CCCC3CCCCC3)c2=O)cc1	64 to 69 °C
CCOC(=O)c1c[nH]c2cc(C)cc(O)c12	152 to 154 °C
